US11554171B2, “Compounds and methods for the targeted degradation of bromodomain-containing proteins” (Arvinas Operations, Inc., priority 2015, dated 2023)

Tested on: c-myc in 22RV-1 cells
Test: Human c-myc ELISA assay
Type: cell-based
Details: Homo sapiens; for Emax: 22Rv1, 18 h, read-out: Degradation of BRD4: Maximum inhibition (%) c-Myc ELISA in 22RV1 cells; for DC50: 22Rv1, read-out: Degradation of BRD4: DC50 (uM) c-Myc ELISA in 22RV1 cells
In short: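 22RV-1 cells treated 18 h with 8-point 1:3 compound dilutions (final top 300 nM or 1 μM, 0.1% DMSO). Cells lysed in RIPA buffer with protease/phosphatase inhibitors, and c-myc protein in cleared lysate quantified by ELISA against a standard curve. DC50 reported for c-myc suppression.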

| Compound | DC50 | Emax |
| --- | --- | --- |
| Cc1ncsc1-c1ccc([C@H](C)NC(=O)[C@@H]2C[C@@H](O)CN2C(=O)[C@@H](C(C)C)n2cc(-c3cc(O[C@H]4C[C@@H](NC(=O)C[C@@H]5N=C(c6ccc(Cl)cc6)c6c(sc(C)c6C)-n6c(C)nnc65)C4)ccn3)cn2)cc1 [Example 303] | > 1 µM | 9.8% |
| Cc1ncsc1-c1ccc(CNC(=O)[C@@H]2C[C@@H](O)CN2C(=O)[C@H](c2cc(Oc3ccc(O[C@H]4C[C@@H](NC(=O)C[C@@H]5N=C(c6ccc(Cl)cc6)c6c(sc(C)c6C)-n6c(C)nnc65)C4)nc3)no2)C(C)C)cc1 [Example 324] | > 1 µM | 31.6% |
| Cc1ncsc1-c1ccc([C@H](C)NC(=O)[C@@H]2C[C@@H](O)CN2C(=O)[C@H](n2cc(-c3ccnc(O[C@H]4C[C@@H](NC(=O)C[C@@H]5N=C(c6ccc(Cl)cc6)c6c(sc(C)c6C)-n6c(C)nnc65)C4)c3)cn2)C(C)(C)C)cc1 [Example 239] | > 1 µM | 39% |
| Cc1ncsc1-c1ccc([C@H](C)NC(=O)[C@@H]2C[C@@H](O)CN2C(=O)[C@@H](C(C)C)n2cc(-c3ccnc(O[C@H]4C[C@@H](NC(=O)C[C@@H]5N=C(c6ccc(Cl)cc6)c6c(sc(C)c6C)-n6c(C)nnc65)C4)c3)cn2)cc1 [Example 218, (2S,4R)-4-hydroxy-N-[(1S)-1-[4-(4-methyl-1,3-thiazol-5-yl)phenyl]ethyl]-1-[(2R)-3-methyl-2-(4-{2-1[(1,3-cis)-3-{2-[(9S)-7-(4-chlorophenyl)-4,5,13-trimethyl-3-thia-1,8,11,12-tetraazatricyclo[8.3.0.0^2,^6]trideca-2(6),4,7,10,12-pentaen-9-yl]acetamido}cyclobutoxy]pyridin-4-yl}-1H-pyrazol-1-yl)butanoyl]pyrrolidine-2-carboxamide] | > 1 µM | 48% |
| Cc1sc2c(c1C)C(c1ccc(Cl)cc1)=N[C@@H](CC(=O)N[C@H]1C[C@H](Oc3ccc(CC(=O)N[C@H](C(=O)N4C[C@H](O)C[C@H]4C(=O)N[C@@H](C)c4ccc(C(=O)N5CCC5)cc4)C(C)(C)C)cc3)C1)c1nnc(C)n1-2 [Example 282] | > 1 µM | 25.4% |
| Cc1ncsc1-c1ccc(CNC(=O)[C@@H]2C[C@@H](O)CN2C(=O)[C@@H](NC(=O)COCCCNC(=O)C[C@@H]2N=C(c3ccc(Cl)cc3)c3c(sc(C)c3C)-n3c(C)nnc32)C(C)(C)C)cc1 [Example 44] | 0.1 to 1 µM | 98% |
| Cc1sc2c(c1C)C(c1ccc(Cl)cc1)=NC(CC(=O)N[C@H]1C[C@H](Oc3ccc(CC(=O)N[C@H](C(=O)N4C[C@H](O)C[C@H]4C(=O)N[C@@H](C)c4ccc(C#N)cc4)C(C)(C)C)cc3)C1)c1nnc(C)n1-2 (stereo partly shown) [Example 279] | 0.1 to 1 µM | 65.4% |
| Cc1ncsc1-c1ccc([C@H](C)NC(=O)[C@H]2C[C@H](O)CN2C(=O)[C@@H](NC(=O)COCCCOCCNC(=O)C[C@@H]2N=C(c3ccc(Cl)cc3)c3c(sc(C)c3C)-n3c(C)nnc32)C(C)(C)C)cc1 [Example 72, (2R, 4S)-1-[(2S)-2-{2-[3-(2-{2-[(9S)-7-(4-chlorophenyl)-4,5,13-trimethyl-3-thia-1,8,11,12-tetraazatricyclo[8.3.0.0^2,^6]trideca-2(6),4,7,10,12-pentaen-9-yl]acetamido}ethoxy)propoxy]acetamido}-3,3-dimethylbutanoyl]-4-hydroxy-N-[(1S)-1-[4-(4-methyl-1,3-thiazol-5-yl)phenyl]ethyl]pyrrolidine-2-carboxamide] | > 1 µM | 10.2% |
| Cc1ncsc1-c1ccc([C@H](C)NC(=O)[C@@H]2C[C@@H](O)CN2C(=O)[C@@H](NC(=O)CCOCCN2CCN(C(=O)C[C@@H]3N=C(c4ccc(Cl)cc4)c4c(sc(C)c4C)-n4c(C)nnc43)CC2)C(C)(C)C)cc1 [Example 318] | 0.1 to 1 µM | 79% |
| Cc1ncsc1-c1ccc(CNC(=O)[C@@H]2C[C@@H](O)CN2C(=O)[C@H](C(C)C)n2cc(-c3ccnc(O[C@H]4C[C@@H](NC(=O)C[C@@H]5N=C(c6ccc(Cl)cc6)c6c(sc(C)c6C)-n6c(C)nnc65)C4)c3)cn2)cc1 [Example 178, (2S,4R)-4-hydroxy-N-{[4-(4-methyl-1,3-thiazol-5-yl)phenyl]methyl}-1-[(2S)-3-methyl-2-(4-{2-[(1,3-cis)-3-{2-[(9S)-7-(4-chlorophenyl)-4,5,13-trimethyl-3-thia-1,8,11,12-tetraazatricyclo[8.3.0.0^2,6]trideca-2(6),4,7,10,12-pentaen-9-yl]acetamido}cyclobutoxy]pyridin-4-yl}-1H-pyrazol-1-yl)butanoyl]pyrrolidine-2-carboxamide] | 0.01 to 0.1 µM | 99% |
| Cc1sc2c(c1C)C(c1ccc(Cl)cc1)=N[C@@H](CC(=O)N[C@H]1C[C@@H](Oc3cc(-c4cnn([C@@H](C(=O)N5C[C@H](O)C[C@H]5C(=O)N[C@@H](C)c5ccc(-n6ccnc6C)cc5)C(C)C)c4)ccn3)C1)c1nnc(C)n1-2 [Example 287] | > 1 µM | 17.3% |
| Cc1ncsc1-c1ccc([C@H](C)NC(=O)[C@@H]2C[C@@H](O)CN2C(=O)[C@@H](C(C)C)n2cc(-c3ccnc(N4CC[C@@H](NC(=O)C[C@@H]5N=C(c6ccc(Cl)cc6)c6c(sc(C)c6C)-n6c(C)nnc65)C4)c3)cn2)cc1 [Example 267] | > 1 µM | 51.4% |

Second part, led by results:

| DC50 | Compound | Emax |
| --- | --- | --- |
| 0.01 to 0.1 µM | Cc1ncsc1-c1ccc(CNC(=O)[C@@H]2C[C@@H](O)CN2C(=O)[C@@H](NC(=O)COCCCOCCCOc2ccc3c(c2)c2c(C(N)=O)cc(-c4c(C)noc4C)cc2n3Cc2ccccc2)C(C)(C)C)cc1 [Example 133, 9-benzyl-2-(dimethyl-1,2-oxazol-4-yl)-6-{3-[3-({[(2S)-1-[(2S,4R)-4-hydroxy-2-({[4-(4-methyl-1,3-thiazol-5-yl)phenyl]methyl}carbamoyl)pyrrolidin-1-yl]-3,3-dimethyl-1-oxobutan-2-yl]carbamoyl}methoxy)propoxy]propoxy}-9H-carbazole-4-carboxamide] | 98% |
| 0.01 to 0.1 µM | Cc1ncsc1-c1ccc([C@H](C)NC(=O)[C@@H]2C[C@@H](O)CN2C(=O)[C@@H](NC(=O)CN2CCC(N3CCCN(C(=O)C[C@@H]4N=C(c5ccc(Cl)cc5)c5c(sc(C)c5C)-n5c(C)nnc54)CC3)CC2)C(C)(C)C)cc1 [Example 333] | 88% |
| < 0.01 µM | Cc1ncsc1-c1ccc(CNC(=O)[C@@H]2C[C@@H](O)CN2C(=O)[C@@H](c2cc(OCCN3CCC(NC(=O)C[C@@H]4N=C(c5ccc(Cl)cc5)c5c(sc(C)c5C)-n5c(C)nnc54)CC3)no2)C(C)C)cc1 [Example 314] | 87% |
| 0.01 to 0.1 µM | Cc1ncsc1-c1ccc([C@H](C)NC(=O)[C@@H]2C[C@@H](O)CN2C(=O)[C@@H](NC(=O)Cc2cccc(O[C@H]3C[C@@H](NC(=O)C[C@@H]4N=C(c5ccc(Cl)cc5)c5c(sc(C)c5C)-n5c(C)nnc54)C3)c2)C(C)(C)C)cc1 [Example 204] | 88% |
| 0.01 to 0.1 µM | Cc1ncsc1-c1ccc([C@H](C)NC(=O)[C@@H]2C[C@@H](O)CN2C(=O)[C@H](C(C)C)n2cc(-c3ccc(N4CC(NC(=O)C[C@@H]5N=C(c6ccc(Cl)cc6)c6c(sc(C)c6C)-n6c(C)nnc65)C4)nc3)cn2)cc1 [Example 265] | 95.9% |
| 0.01 to 0.1 µM | Cc1ncsc1-c1ccc(CNC(=O)[C@@H]2C[C@@H](O)CN2C(=O)[C@@H](NC(=O)COCCCOCCCOc2ccc(NC(=O)C[C@@H]3N=C(c4ccc(Cl)cc4)c4c(sc(C)c4C)-n4c(C)nnc43)cc2F)C(C)(C)C)cc1 [Example 19] | 92% |
| < 0.01 µM | Cc1ncsc1-c1ccc([C@H](C)NC(=O)[C@@H]2C[C@@H](O)CN2C(=O)[C@@H](NC(=O)COC/C=C\COCCNC(=O)C[C@@H]2N=C(c3ccc(Cl)cc3)c3c(sc(C)c3C)-n3c(C)nnc32)C(C)(C)C)cc1 [Example 146, (2S,4R)-1-[(2S)-2-(2-{[(2Z)-4-(2-{2-[(9S)-7-(4-chlorophenyl)-4,5,13-trimethyl-3-thia-1,8,11,12-tetraazatricyclo[8.3.0.0^2,^6]trideca-2(6),4,7,10,12-pentaen-9-yl]acetamido}ethoxy)but-2-en-1-yl]oxy}acetamido)-3,3-dimethylbutanoyl]-4-hydroxy-N-[(1S)-1-[4-(4-methyl-1,3-thiazol-5-yl)phenyl]ethyl]pyrrolidine-2-carboxamide] | 100% |
| < 0.01 µM | Cc1ncsc1-c1ccc([C@H](C)NC(=O)[C@@H]2C[C@@H](O)CN2C(=O)[C@@H](NC(=O)[C@@H](C)OCCCOCCNC(=O)C[C@@H]2N=C(c3ccc(Cl)cc3)c3c(sc(C)c3C)-n3c(C)nnc32)C(C)(C)C)cc1 [Example 154] | 94.5% |
| 0.01 to 0.1 µM | Cc1ncsc1-c1ccc([C@H](C)NC(=O)[C@@H]2C[C@@H](O)CN2C(=O)[C@H](C(C)C)n2cc(-c3ccnc(N4CC(NC(=O)C[C@@H]5N=C(c6ccc(Cl)cc6)c6c(sc(C)c6C)-n6c(C)nnc65)C4)c3)cn2)cc1 [Example 248] | 95.9% |
| 0.01 to 0.1 µM | Cc1ncsc1-c1ccc(CNC(=O)[C@@H]2C[C@@H](O)CN2C(=O)[C@@H](NC(=O)COCCOCCOc2ccc(NC(=O)C[C@@H]3N=C(c4ccc(Cl)cc4)c4c(sc(C)c4C)-n4c(C)nnc43)cc2)C(C)(C)C)cc1 [Example 10, (2S,4R)-1-[(2S)-2-(2-{2-[2-(4-{2-[(9S)-7-(4-chlorophenyl)-4,5,13-trimethyl-3-thia-1,8,11,12-tetraazatricyclo[8.3.0.0^2,^6]trideca-2(6),4,7,10,12-pentaen-9-yl]acetamido}phenoxy)ethoxy]ethoxy}acetamido)-3,3-dimethylbutanoyl]-4-hydroxy-N-{[4-(4-methyl-1,3-thiazol-5-yl)phenyl]methyl}pyrrolidine-2-carboxamide] | 100% |
| 0.01 to 0.1 µM | Cc1ncsc1-c1ccc(CNC(=O)[C@@H]2C[C@@H](O)CN2C(=O)[C@@H](NC(=O)COc2ccccc2C(=O)N2CC[C@H](NC(=O)C[C@@H]3N=C(c4ccc(Cl)cc4)c4c(sc(C)c4C)-n4c(C)nnc43)C2)C(C)(C)C)cc1 [Example 87] | 96.4% |
